In ChEMBL document CHEMBL1151399, “Identification of terpenoids from the leaves of Piptocarpha paradoxa and their biological activities” (J Nat Prod, 1982):
The source made the active and inactive calls. No cut-off for these calls is given here.

Experiments:
Assay type in all cases: functional, organism-based
Providencia rettgeri = assay: Antimicrobial activity against Proteus rettgeri Hadley 1918 by Kirby and Baur method
Streptococcus sp. = assay: Antimicrobial activity against Streptococcus sp. Rosenbach 1884 by Kirby and Baur method
Salmonella typhi = assay: Antimicrobial activity against Salmonella typhi Zopf 1884 by Kirby and Baur method; conditions: Salmonella enterica subsp. enterica serovar Typhi
Staphylococcus aureus = assay: Antimicrobial activity against Staphylococcus aureus Rosenbach 1884 by Kirby and Baur method
Candida = assay: Antimicrobial activity against Candida sp. Berkhout by Kirby and Baur method
Klebsiella aerogenes = assay: Antimicrobial activity against Enterobacter aerogenes Kruse 1896 by Kirby and Baur method
Kocuria rosea = assay: Antimicrobial activity against Micrococcus roseus Flugge 1886 by Kirby and Baur method
Escherichia coli = assay: Antimicrobial activity against Escherichia coli Migula 1895 by Kirby and Baur method

In the case of `C=C1CCC2CC1C(C)(C)CC(O)/C=C\2C` (stereo not drawn), the Activity (Providencia rettgeri) is reported as “inactive”, the Activity (Streptococcus sp.) is reported as “inactive” and the Activity (Salmonella typhi) is reported as “inactive”. The Activity (Staphylococcus aureus) was “Active”, the Activity (Candida) was “inactive” and the Activity (Klebsiella aerogenes) was “inactive”. The Activity (Kocuria rosea) was “inactive” and the Activity (Escherichia coli) was “inactive”.
